We go through 13 compounds from publication PMC11672637, “7-O-Carboxylic Acid-Substituted 3-O-Alkyl Difluoroquercetin; An Aztreonam-Potentiating Agent Against Carbapenemase-Producing Pseudomonas aeruginosa Through Simultaneous Inhibition of Metallo-β-Lactamase and Efflux Pump” (Antibiotics, 2024).

Data set [1] relates to efflux pump activity in P. aeruginosa (PA-017, blaNDM). The experiment in a line: EtBr accumulation, inhibition of efflux pump activity. The data set is classed as cell-based. The following applies: EtBr fluorescence compared with positive control CCCP. On the procedure: The NDM-producing P. aeruginosa clinical isolate (PA-017, blaNDM) (5 mL, LB medium) was grown to reach the mid-log phase. After centrifugation at 3500 rpm for 15 min, the bacterial pellet was washed twice with PBS and resuspended to OD600 = 0.3 in PBS. To each well of a flat-bottomed black 96-well plate, 182 µL of the bacterial suspension, 4 µL of glucose [final concentration = 0.4% (w/v)], 4 µL of the synthesized compounds or positive control CCCP, and 10 µL of EtBr (final concentration = 1 µg/mL) were added. The plate was incubated at 37 °C, and fluorescence emission from EtBr (λex 480 nm/λem 630 nm) was recorded every 2 min (for 60 min) using a Cytation 5 imaging multi-mode reader (BioTek Instruments, Inc., Winooski, VT, USA).

Data set [2] concerns NDM-1-Producing P. aeruginosa (PA-017, blaNDM). Put plainly: MIC / checkerboard with ATM. The format is cell-based. Particulars: PA-017; for MIC: Pseudomonas aeruginosa, compound alone, read-out: MIC, Cmpd.
For data set [3] the following is noted: rat, cited from earlier work.
The target of another data set is AmpC. Put plainly: β-lactamase inhibition assay (nitrocefin). The data set is classed as biochemical. The following applies: nitrocefin substrate; read-out: BLi, IC50 AmpC. How it is done: (§1) Recombinant AmpC, OXA-48 (residues 23–265) and VIM-2 (residues 27–266) were prepared from Escherichia coli based on previously established protocols. KPC-2 and NDM-1 are commercially available from LifeSpan Biosciences, Inc., Seattle, WA, USA (LS-G26598) and RayBiotech, Inc., Peachtree Corners, GA, USA (230-00554), respectively. For β-lactamase inhibition assay, in a 96-well plate, 70–0.1 μM (in PBS) of the synthesized compounds (1~14) (100 μL) were mixed with diluted β-lactamase stock (2% DMSO in 200 μL). In a separate 96-well plate, a substrate of AmpC, KPC-2, OXA-48, and VIM-2 (nitrocefin) and NDM-1 (imipenem) were added into each well (final concentrations of 70 μM for nitrocefin and 100 μM for imipenem). After incubation at 37 °C for 20 min, the mixture of the synthesized compounds (1~14) and β-lactamase in one plate was added to the substrate in the other plate. Enzymatic hydrolysis of the substrate was then monitored by a Cytation 5 imaging multimode reader (BioTek Instruments Inc., Winooski, VT, USA) at 486 nm and 300 nm for nitrocefin and imipenem, respectively, for 15 min. The rates of hydrolysis in the presence of the inhibitors were determined when the reaction rate plateaued. Comparison of the enzymatic hydrolysis rates in the presence and the absence of inhibitors (100%) provided the percentage of enzyme inhibition at each concentration of the synthesized compounds. The IC50 values were obtained after non-linear regression (sigmoidal dose-responses) by GraphPad Prism 5 (GraphPad Software, Boston, MA, USA).

Another data set deals with T1, NDM-1 (Klebsiella pneumoniae, UniProt C7C422).
T1 construct: purchased RayBiotech, Inc. 230-00554
T1 sequence (C7C422 29-270, looked up, species assumed): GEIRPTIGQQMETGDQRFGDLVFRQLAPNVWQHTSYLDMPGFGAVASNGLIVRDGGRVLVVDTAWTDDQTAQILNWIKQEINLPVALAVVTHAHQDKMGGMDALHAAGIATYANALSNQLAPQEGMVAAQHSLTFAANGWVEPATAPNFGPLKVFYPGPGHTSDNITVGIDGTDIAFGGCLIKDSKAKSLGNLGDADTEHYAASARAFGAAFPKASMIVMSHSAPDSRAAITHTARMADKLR
Put plainly: β-lactamase inhibition assay (imipenem). The data set is classed as biochemical. The following applies: imipenem substrate; read-out: BLi, IC50 NDM-1. How it is done: as §1

A further data set has as its target T2, OXA-48 (Klebsiella pneumoniae, UniProt Q6XEC0).
T2 construct: OXA-48 (residues 23–265); made in house; host or cells: Escherichia coli
The experiment in a line: β-lactamase inhibition assay (nitrocefin). The following applies: nitrocefin substrate; read-out: BLi, IC50 OXA-48. The data set is classed as biochemical. How it is done: as §1

A further data set addresses T3, KPC-2 (Klebsiella pneumoniae, UniProt Q9F663).
T3 construct: purchased LifeSpan Biosciences, Inc. LS-G26598
The experiment in a line: β-lactamase inhibition assay (nitrocefin). The following applies: nitrocefin substrate; read-out: BLi, IC50 KPC-2. The format is biochemical. On the procedure:
as §1

A further data set addresses T4, VIM-2 (Escherichia coli, UniProt Q5U7L7).
T4 construct: VIM-2 (residues 27–266); made in house; host or cells: Escherichia coli
Put plainly: β-lactamase inhibition assay (nitrocefin). The format is biochemical. Particulars: nitrocefin substrate; read-out: BLi, IC50 VIM-2. How it is done:
as §1

Some results are limits rather than exact numbers.

T3 sequence (Q9F663 25-293, looked up, species assumed): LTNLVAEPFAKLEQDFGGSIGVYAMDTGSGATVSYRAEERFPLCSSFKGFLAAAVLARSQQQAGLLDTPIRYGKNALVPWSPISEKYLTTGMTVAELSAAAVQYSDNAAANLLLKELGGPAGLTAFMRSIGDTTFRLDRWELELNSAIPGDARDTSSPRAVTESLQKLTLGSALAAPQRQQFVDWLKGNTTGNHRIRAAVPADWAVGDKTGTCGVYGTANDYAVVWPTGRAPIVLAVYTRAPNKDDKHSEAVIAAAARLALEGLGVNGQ
T2 sequence (Q6XEC0 23-265 limits assumed): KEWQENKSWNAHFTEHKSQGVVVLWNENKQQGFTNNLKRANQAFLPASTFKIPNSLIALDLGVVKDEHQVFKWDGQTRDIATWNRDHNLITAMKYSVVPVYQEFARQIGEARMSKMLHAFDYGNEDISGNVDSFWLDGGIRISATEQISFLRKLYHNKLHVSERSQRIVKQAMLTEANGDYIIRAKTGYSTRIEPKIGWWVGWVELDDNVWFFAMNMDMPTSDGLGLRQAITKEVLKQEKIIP

Turning to `CC(C)(C)CCOc1c(-c2ccc(F)c(F)c2)oc2cc(O)cc(O)c2c1=O` [Compound 1], in data set [1], the “EPi (inhibition of efflux pump activity)” value is listed as “↑↑↑ ^e”. For the same compound, in data set [2], the “FD (fold decrease in the MIC of ATM upon combination with the compound)” value turned out to be 2 and the MIC (usually the least concentration at which growth counts as inhibited) was over 256 µg/mL. The “F (mean oral bioavailability)” value in data set [3] was 0.27%. Moreover, in data set [3] (oral administration), the AUClast is 20 ng·h/mL and the Cmax (commonly the peak of the concentration-time curve) was 10 ng/mL. Moreover, the IC50 (as a rule, the concentration at which inhibition is half-maximal) at AmpC turned out to be 18.9 ± 1.8 µM.

As to `O=c1c(OCCC2CCCC2)c(-c2ccc(F)c(F)c2)oc2cc(O)cc(O)c12` [Compound 2], in data set [1], the “EPi (inhibition of efflux pump activity)” value is “↑↑↑ ^e”. In addition, in data set [2], the “FD (fold decrease in the MIC of ATM upon combination with the compound)” value was 2 and the MIC is over 256 µg/mL. In addition, on AmpC, the IC50 was found to be 21 ± 2.1 µM.

Consider `O=c1c(OCCC2CCCCC2)c(-c2ccc(F)c(F)c2)oc2cc(O)cc(O)c12` [Compound 3], for which the “EPi (inhibition of efflux pump activity)” value in data set [1] was “↑↑↑ ^e”. In data set [2], the “FD (fold decrease in the MIC of ATM upon combination with the compound)” value is 4 and the MIC is over 256 µg/mL. Also, the IC50 on AmpC is 15.3 ± 1.5 µM.

As for `O=C(O)CC(Oc1cc(O)c2c(=O)c(OCCC3CCCCC3)c(-c3ccc(F)c(F)c3)oc2c1)C(=O)O` (centres unmarked) [Compound 4, 2-((3-(2-Cyclohexylethoxy)-2-(3,4-difluorophenyl)-5-hydroxy-4-oxo-4H-chromen-7-yl)oxy)succinic Acid], in data set [1], the “EPi (inhibition of efflux pump activity)” value was “- ^f”. The “FD (fold decrease in the MIC of ATM upon combination with the compound)” value in data set [2] was determined as 1. For the same compound, the MIC in data set [2] is over 256 µg/mL. Also, the IC50 on NDM-1 is over 50 µM; at OXA-48 it was over 100 µM; on KPC-2, over 50 µM; at VIM-2, over 100 µM; at AmpC, over 50 µM.

For `O=C(O)COc1cc(O)c2c(=O)c(OCCC3CCCC3)c(-c3ccc(F)c(F)c3)oc2c1` [Compound 6, 2-((3-(2-Cyclopentylethoxy)-2-(3,4-difluorophenyl)-5-hydroxy-4-oxo-4H-chromen-7-yl)oxy)acetic Acid], the “EPi (inhibition of efflux pump activity)” value in data set [1] is listed as “↑ ^g”. For the same compound, in data set [2], the “FD (fold decrease in the MIC of ATM upon combination with the compound)” value is reported as 4. Further, the MIC in data set [2] is over 256 µg/mL. Also, the IC50 at NDM-1 is 16.1 ± 1.1 µM; on OXA-48, over 100 µM; on KPC-2, over 50 µM; at VIM-2 it was 37.3 ± 0.6 µM; at AmpC, over 50 µM.

As to `O=C(O)COc1cc(O)c2c(=O)c(OCCC3CCCCC3)c(-c3ccc(F)c(F)c3)oc2c1` [Compound 7, 2-((3-(2-Cyclohexylethoxy)-2-(3,4-difluorophenyl)-5-hydroxy-4-oxo-4H-chromen-7-yl)oxy)acetic Acid], the “EPi (inhibition of efflux pump activity)” value in data set [1] is “↑ ^g”. For the same compound, the “FD (fold decrease in the MIC of ATM upon combination with the compound)” value in data set [2] turned out to be 4. The MIC in data set [2] is over 256 µg/mL. In addition, the IC50 was 14.7 ± 1.6 µM at NDM-1; over 100 µM on OXA-48; over 50 µM on KPC-2; 21 ± 1.3 µM on VIM-2; over 50 µM on AmpC.

Take `C[N+](C)(CCNC(=O)COc1cc(O)c2c(=O)c(OCCC3CCCCC3)c(-c3ccc(F)c(F)c3)oc2c1)CC(=O)[O-]` [Compound 8, 2-((2-(2-((3-(2-Cyclohexylethoxy)-2-(3,4-difluorophenyl)-5-hydroxy-4-oxo-4H-chromen-7-yl)oxy)acetamido)ethyl)dimethylammonio)acetate]: in data set [1], the “EPi (inhibition of efflux pump activity)” value was “- ^f”. In data set [2], the “FD (fold decrease in the MIC of ATM upon combination with the compound)” value came to 2. Moreover, the MIC in data set [2] was over 256 µg/mL. Besides, the IC50 at NDM-1 was over 50 µM; at OXA-48 it was over 100 µM; on KPC-2 it was over 50 µM; at VIM-2 it was over 100 µM; on AmpC, over 50 µM.

For the compound `CC(C)(C)CCOc1c(-c2ccc(F)c(F)c2)oc2cc(OCC(=O)Nc3ccccc3)cc(O)c2c1=O` [Compound 9, 2-((2-(3,4-Difluorophenyl)-3-(3,3-dimethylbutoxy)-5-hydroxy-4-oxo-4H-chromen-7-yl)oxy)-N-phenylacetamide], in data set [1], the “EPi (inhibition of efflux pump activity)” value is listed as “- ^f”. Also, in data set [2], the “FD (fold decrease in the MIC of ATM upon combination with the compound)” value worked out at 1. Moreover, the MIC in data set [2] was over 256 µg/mL. Also, the IC50 was 7.6 ± 0.3 µM on NDM-1; 6.4 ± 0.6 µM at OXA-48; 26.2 ± 1.5 µM at KPC-2; 12.6 ± 1.2 µM on VIM-2; over 50 µM on AmpC.

Consider `CC(C)(C)CCOc1c(-c2ccc(F)c(F)c2)oc2cc(OCC(=O)N3CCCCC3)cc(O)c2c1=O` [Compound 10, 2-(3,4-Difluorophenyl)-3-(3,3-dimethylbutoxy)-5-hydroxy-7-(2-oxo-2-(piperidin-1-yl)ethoxy)-4H-chromen-4-one], for which the “EPi (inhibition of efflux pump activity)” value in data set [1] is recorded as “- ^f”. Besides, in data set [2], the “FD (fold decrease in the MIC of ATM upon combination with the compound)” value came out at 1. In addition, the MIC in data set [2] is over 256 µg/mL. The IC50 at NDM-1 is over 50 µM; on OXA-48 it was over 50 µM; at KPC-2 it was over 50 µM; on VIM-2, over 100 µM; at AmpC, over 50 µM.

Regarding `CC(C)(C)CCOc1c(-c2ccc(F)c(F)c2)oc2cc(OCC(=O)N[C@@H](CCCCN)C(=O)O)cc(O)c2c1=O.Cl` [Compound 11, (S)-6-Amino-2-(2-((2-(3,4-difluorophenyl)-3-(3,3-dimethylbutoxy)-5-hydroxy-4-oxo-4H-chromen-7-yl)oxy)acetamido)hexanoic Acid Hydrochloride], the “EPi (inhibition of efflux pump activity)” value in data set [1] was “- ^f”. Besides, the “FD (fold decrease in the MIC of ATM upon combination with the compound)” value in data set [2] is 1. Further, the MIC in data set [2] was over 256 µg/mL. Also, the IC50 on NDM-1 was over 50 µM; at OXA-48 it was over 100 µM; at KPC-2, over 50 µM; on VIM-2, over 100 µM; at AmpC, over 50 µM.

With `CN1CCCC1CCOc1cc(O)c2c(=O)c(OCCC(C)(C)C)c(-c3ccc(F)c(F)c3)oc2c1` (centres unmarked) [Compound 12, 2-(3,4-Difluorophenyl)-3-(3,3-dimethylbutoxy)-5-hydroxy-7-(2-(1-methylpyrrolidin-2-yl)ethoxy)-4H-chromen-4-one], the “EPi (inhibition of efflux pump activity)” value in data set [1] was “- ^f”. In addition, the “FD (fold decrease in the MIC of ATM upon combination with the compound)” value in data set [2] was 2. In addition, the MIC in data set [2] is over 256 µg/mL. Further, the IC50 on NDM-1 was over 50 µM; at OXA-48 it was over 100 µM; on KPC-2, over 50 µM; on VIM-2, over 100 µM; at AmpC, over 50 µM.

As to `CN1CCN(CCOc2cc(O)c3c(=O)c(OCCC(C)(C)C)c(-c4ccc(F)c(F)c4)oc3c2)CC1` [Compound 13, 2-(3,4-Difluorophenyl)-3-(3,3-dimethylbutoxy)-5-hydroxy-7-(2-(4-methylpiperazin-1-yl)ethoxy)-4H-chromen-4-one], in data set [1], the “EPi (inhibition of efflux pump activity)” value is on record as “- ^f”. Moreover, the “FD (fold decrease in the MIC of ATM upon combination with the compound)” value in data set [2] came to 2. The MIC in data set [2] was over 256 µg/mL. The IC50 on NDM-1 was over 50 µM; on OXA-48 it was over 100 µM; on KPC-2, over 50 µM; on VIM-2, over 100 µM; on AmpC, over 50 µM.

In the case of `CN1CCN(CCOc2cc(O)c3c(=O)c(OCCC4CCCC4)c(-c4ccc(F)c(F)c4)oc3c2)CC1` [Compound 14, 3-(2-Cyclopentylethoxy)-2-(3,4-difluorophenyl)-5-hydroxy-7-(2-(4-methylpiperazin-1-yl)ethoxy)-4H-chromen-4-one], the “EPi (inhibition of efflux pump activity)” value in data set [1] is reported as “- ^f”. Further, in data set [2], the “FD (fold decrease in the MIC of ATM upon combination with the compound)” value turned out to be 2. Moreover, in data set [2], the MIC is over 256 µg/mL. The half-inhibitory concentration (IC50) on NDM-1 is over 50 µM; at OXA-48 it was over 100 µM; at KPC-2, over 50 µM; at VIM-2, over 100 µM; at AmpC, over 50 µM.
